The test system of test [1] is SK-N-MC neuroblastoma. Nature of the test: SK-N-MC neuroblastoma xenograft tumor growth in nude mice. In kind it is in vivo. To be noted: YC-1 30 μg/g daily i.p. 2 weeks, P<0.01. The procedure:
(§1) Male nude mice were injected subcutaneously in the flank with 5×10^6 viable Hep3B hepatoma (A), NCI-H87 gastric carcinoma (B), SiHa cervical carcinoma (C), SK-N-MC neuroblastoma (E), or Caki-I renal carcinoma (F) cells. […] Tumor size was measured over time. […] Differences between tumor sizes in the vehicle- and YC-1-treated groups for mice with Hep3B tumors were compared using ANOVA and Duncan's multiple range tests. * denotes P<0.001 relative to the control. Differences between tumor sizes in the vehicle and YC-1-treated groups for mice with other tumors (B-E) were compared using a Mann-Whitney U test. Each number beneath the error bar represents the P value of the difference relative to the control.
(§2) Male nude (BALB/cAnNC˜-nu/nu) mice were purchased from Charles River Japan Inc. (Shin-Yokohama, JAPAN). The animals were housed in a specific pathogen-free room under controlled temperature and humidity. All animal procedures were performed according to the established procedures of the Seoul National University Laboratory Animal Maintenance Manual. Eighty mice aged 7-8 weeks were injected with tumor cells for the xenograft experiments. […]
(§3) Tumors were measured every 2 or 3 days with calipers in two dimensions and the tumor volumes were calculated using the formula: Volume=axb2/2, where a is the width at the widest point of the tumor and h is the width perpendicular to a. […]

Test [2] has as its system NCI-H87 gastric carcinoma. Nature of the test: NCI-H87 gastric carcinoma xenograft tumor growth in nude mice. Type of test: in vivo. The conditions noted are these: YC-1 30 μg/g daily i.p. 2 weeks, P<0.01. On the procedure: as §1, §2, §3
The subject of test [3] is SiHa cervical carcinoma. The experiment in a line: SiHa cervical carcinoma xenograft tumor growth in nude mice. In kind it is in vivo. To be noted: YC-1 30 μg/g daily i.p. 2 weeks, P<0.01. On the procedure:
as §1, §2, §3

The test system of test [4] is HIF-1-regulated genes (VEGF, aldolase A, and enolase 1). The experiment in a line: semi-quantitative RT-PCR of HIF-1α and HIF-1-regulated gene mRNA in Hep3B cells. In kind it is cell-based, human. The conditions noted are these: 16 hours. On the procedure: FIG. 2 is an autoradiograph showing mRNA levels of VEGF, aldolase A, enolase 1, HIF-1α, and β-actin.
Immunoblotting was used to detect HIF-1 protein in cultured cells, as described (Chun et al., Biochem Pharmacol 2001 61:947-954). Cells were centrifuged at 3000 rpm for 5 minutes at VC and then washed twice with ice-cold phosphate buffered saline (PBS). Cells were then resuspended in ten packed cell volumes of alysis buffer consisting of 10 mM Tris, pH 7.4, 130 mM NaCl, 2 mM EDTA, 1% Nonidet P-40, 0.5 mM dithiothreitol, and 0.5 mM phenylmethylsulfonyl fluoride. […] To quantify mRNAs for HIF-1α and HIF-1-regulated genes, we performed a highly sensitive, semi-quantitative reverse transcription-polymerase chain reaction (RT PCR), as described previously (Chun et al., J Cell Sci 2001 114:4051-4061). […] P-actin mRNA was measured as a PCR control. […] To assess whether the VEGF mRNA levels affected levels of VEGF protein secreted into the medium, we measured VEGF protein levels in Hep3B cell-conditioned medium. […] VEGF levels in the conditioned media were quantified by using the Quantikine human VEGF Immunoassay kit (R&D Systems, Minneapolis, Minn.) according to the manufacturer's recommended protocol. The VEGF concentrations were quantified by comparison with a series of VEGF standard samples included in the assay kit. […]

Each structure is given as a SMILES string.

Consider `OCc1ccc(-c2nn(Cc3ccccc3)c3ccccc23)o1` [YC-1, 3-(5′-hydroxymethyl-2′-furyl)-1-benzylindazole], for which the “tumor size versus vehicle” value in test [1], in test [2] and in test [3] was “statistically significantly smaller” throughout. Further, in test [4], the “HIF-1α mRNA level” value is given as “relatively unchanged”. Besides, the “expression of HIF-1-regulated genes (VEGF, aldolase A, and enolase 1) mRNA” value in test [4] (hypoxic) is “dose dependently decreased”.
